Earlier results as cited in US8288413B2, “Benzimidazolones which have activity at M1 receptor” (Glaxo Group Limited, priority 2005, dated 2012).

Tests used:
[1] = system: unilateral 6-OH-DA lesioned rats
[2] = in vivo
c-fos expression = conditions: rats

SMILES: CCCCCCOc1nsnc1C1=CCCN(C)C1 [xanomeline]
- EPS liability (monkeys): without EPS liability
- amphetamine-induced motor unrest (monkeys): reverses
- dopamine agonist driven turning [1]: reverses
- psychotic symptoms such as suspiciousness, hallucinations and delusions (Alzheimer's patients; Alzheimer's patients): reduce
- side effects (Alzheimer's patients; clinical use): dose-limiting peripheral cholinergic side effects
- conditioned avoidance [2]: inhibit
- amphetamine induced locomotion (rats): reverses
- apomorphine induced climbing (mice): reverses
- c-fos expression in prefrontal cortex and nucleus accumbens (c-fos expression): induces
- c-fos expression in striatum (c-fos expression): not in striatum
- A9 dopamine cell firing (dopamine cell firing; A9): not A9
- A10 dopamine cell firing (dopamine cell firing; A10): inhibit
